Laboratory results reported in patent US20250228815A1, “LYOPHILIZED RESINIFERATOXIN” (Gruenenthal GmbH, priority 2024, published 2025).
Converted amounts (≈) assume the structure as drawn. Where two headings read alike, the source gives them in different places.

Assays:
[1] = maximum solubility of Resiniferatoxin by the equilibrium method (HPLC); type: physicochemical; settings: buffer medium with TPGS, 25 °C, pH 8, aqueous with cosolvent or surfactant or cyclodextrin, thermodynamic from solid, TPGS 3.5 mg/ml, n ≥ 3, read-out: RTX solubility
Protocol: The maximum solubility of Resiniferatoxin in various liquids was investigated by the equilibrium method.
Buffer media were saturated with an excess amount of Resiniferatoxin (characterized by undissolved API) and incubated at 25° C. while shaking (150 rpm) for 72 h. After incubation, 1 mL of each sample was centrifuged (10 min, 12045 RCF) and the supernatant was used to determine the amount of solubilized Resiniferatoxin via HPLC.

[2] = same trial: safety, treatment emergent adverse events and injection site pain; type: in vivo, human; settings: for subjects with severe adverse events: none related to investigational medicinal product
Protocol: (§1) The primary objective of this study was to compare the analgesic effects of single intraarticular injections of Resiniferatoxin (100 or 400 ng) compared to placebo, at 3 and 6 months postinjection, in participants with chronic osteoarthritic knee joint pain. Secondary objectives were to evaluate the analgesic effects of Resiniferatoxin versus placebo in terms of a responder analysis (percentage of subjects achieving ≥50% or ≥70% reduction in visual analog scale pain score) and changes in Western Ontario and McMaster Universities Arthritis Index (WOMAC) total and subscale scores (pain, physical function and stiffness). Safety and injection site pain were also evaluated.
(§2) The study was conducted as a randomized, double-blind, placebo-controlled, single-dose trial of Resiniferatoxin. Eligible patients were aged 40 to 80 years with radiographic knee osteoarthritis (Kellgren-Lawrence Grade 2-4 in the last 3 years) and a baseline visual analog scale (0-100 mm) pain score ≥40 mm on motion in the target knee, with or without pain medication. 67 subjects were randomized to treatment with either Resiniferatoxin 100 ng (n=24) or 400 ng (n=23), or placebo (n=20), administered intraarticularly into the index knee. Intraarticular Ropivacaine (5 ml, 0.5%) was administered 15 mins before investigational medicinal product. Visual analog scale scores were used to evaluate pain on motion as the average of the last 2 days in a target knee between baseline and at 3 and 6 months post injection. Injection site pain was rated (visual analog scale) from baseline (−0.5 h) up to 3 h post intraarticular injections.

[3] = randomized, double-blind, placebo-controlled, single-dose trial of intraarticular Resiniferatoxin: analgesic effect (VAS pain on motion, WOMAC); type: in vivo, human
Protocol: as §1, §2
Data values plotted as mean±standard error of mean, offset in X for clarity. ▴ Placebo (n=20); ▪ Resiniferatoxin 100 ng (n=24); ● Resiniferatoxin 400 ng (n=23).

[4] = cited from earlier work
[5] = single intraarticular 100 ng or 400 ng

Row | SMILES | solubility at 72 h ([1]; Ex. 5-1: no ethanol, NaCl 8.58, CaCl2 0.2, KCl 0.1, trometamol 0.4 mg/ml, pH 8.0, mean ± SD) [µg/mL] | solubility at 72 h ([1]; Ex. 5-2: ethanol 39.44 mg/ml, NaCl 8.58, CaCl2 0.58, KCl 0.3, trometamol 1.22 mg/ml, pH 8.0, mean ± SD) [µg/mL] | solubility at 72 h ([1]; Ex. 5-3: ethanol 39.44 mg/ml, mannitol 14.9 mg/ml, salts as Ex. 5-2, pH 8.0, mean ± SD) [µg/mL] | solubility at 72 h ([1]; Ex. 5-4: no ethanol, NaCl 8.58, CaCl2 0.58, KCl 0.3, trometamol 1.22 mg/ml, pH 8.0, mean ± SD) [µg/mL] | subjects with severe adverse events ([2]; Resiniferatoxin 100 ng) [subjects] | subjects with severe adverse events ([2]; Resiniferatoxin 400 ng) [subjects] | injection site pain (procedural pain) compared to placebo ([2]; highly variable across treatment groups) | time of peak injection site pain post-injection ([2]; intraarticular injection, moderate-severe intensity in some subjects) | injection site pain, return to baseline ([2]; post intraarticular injection) [h] | safety profile and tolerability [2, 5] | reduction in WOMAC total and subscale scores (pain, physical function and stiffness) compared to placebo ([3]; 100 ng and 400 ng, at both 3 and 6 months) | pain reduction compared to placebo ([3]; 100 ng or 400 ng intraarticular) | first trial visit at which reduction in VAS pain on motion was observed ([3]; intention-to-treat population) [days] | last trial visit until which the effect lasted ([3]; intention-to-treat population) [month] | analgesic onset after administration [3, 5] | duration for which analgesia was evident during follow-up [3, 5] | efficacy ([4]; 5 μg, 12.5 μg, 20 μg and 30 μg cohorts, preliminary) | safety ([4]; onetime intraarticular injection up to 30 μg)
1 | C=C(C)[C@]12C[C@@H](C)[C@@]34O[C@](Cc5ccccc5)(O[C@@H]1[C@@H]3C=C(COC(=O)Cc1ccc(O)c(OC)c1)C[C@]1(O)C(=O)C(C)=C[C@@H]41)O2 [RTX] | 333 ± 100 (≈ 530 µM) | 630 ± 38 (≈ 1000 µM) | 336 ± 53 | 317 ± 75 (≈ 504 µM) | – | – | – | – | – | – | – | – | – | – | – | – | – | –
2 | C=C(C)[C@]12C[C@@H](C)[C@@]34O[C@](Cc5ccccc5)(O[C@@H]1[C@@H]3C=C(COC(=O)Cc1ccc(O)c(OC)c1)C[C@]1(O)C(=O)C(C)=C[C@@H]41)O2 [Resiniferatoxin, 4-hydroxy-3-methoxy-benzeneacetic acid, [(2S,3aR,3bS,6aR,9aR,9bR, 10R,11aR)-3a,3b,6,6a,9a,10,11,11a-octahydro-6a-hydroxy-8,10-dimethyl-11a-(1-methylethenyl)-7-oxo-2-(phenylmethyl)-7H-2,9b-epoxyazuleno[5,4-e]-1,3-benzodioxol-5-yl]methyl ester] | – | – | – | – | 2 | 3 | generally higher | around 0.5 h | ≤ 3 | good safety profile | greater reduction | greater pain reduction | 8 | 6 | within one week | at least 3 months | Preliminary efficacy was also observed | demonstrated safety
